Assay results taken from US4883758A, “Biologically pure culture of the microorganism Streptomycas tropolofaciens used for producing 3,7-dihydroxytropolone and antitumor use” (priority 1989, dated 1989).
Where two headings read alike, the source gives them in different places.

How the values were obtained:
[1] = tested on: B16-F10 murine melanoma tumor cells; assay: In vitro cytotoxicity against B16-F10 melanoma cells (72 h, neutral red); format: cell-based
Procedure: (§1) BU-3129T (3,7-dihydroxytropolone) and its analogs were tested for in vitro cytotoxicity against logarithmically growing murine melanoma tumor cells in liquid culture. B16-F10 cells (4×10^4 cells) in the enriched MEM (Minimum essential medium (Eagle's)) containing test material solution were planted into wells of 96-well microtiter plates and incubated at 37° C., with 5% CO2 under high humidity for 72 hours. After staining with neutral red, cytotoxicity of test material was determined colorimetrically. The inhibitory effects on macromolecule biosynthesis were examined in cultured L1210 leukemia cells. L1210 cells (5×10^5 cells) were exposed to radioactive precursors (^3 H-thymidine, ^14 C-uridine and ^3 H-leucine) for 60 min after the treatment with test material for 15 min. The incorporated radioactivities into acid-insoluble fractions were measured by using a liquid scintillation counter. The in vivo antitumor activity of BU-3129T was determined in male BDF1 mice against leukemia P388 and melanoma B16. Leukemia P388 and melanoma B 16 were inoculated by the intraperitoneal injection at 10^6 cells and 0.5 ml of a 10% tumor brei per mouse, respectively. Test material was administered to mice intraperitoneally once daily through 1 to 9 days after tumor implantation. Tropolone and mitomycin C were comparatively tested in the experiments.

Leukemia P388 = format: in vivo, male BDF1 mice; murine tumor; conditions: for T/C: MST
Procedure: as §1

Melanoma B16 [2] = assay: In vivo antitumor activity against melanoma B16 in mice, Exp. 1; design: species or system male BDF1 mice; murine tumor; conditions: for T/C: MST
Procedure: as §1

[3] = Kirst, et. al., J. Antibiotics 1982; cited from earlier work
Melanoma B16 [4] = assay: In vivo antitumor activity against melanoma B16 in mice, Exp. 2; design: species or system male BDF1 mice; murine tumor; conditions: for Average weight change on day 5: B16 Exp. 2, qd 1→9, ip
Procedure: as §1

[5] = B16 Exp. 1, 0.16 mg/kg/day, qd 1→9, ip
[6] = B16 Exp. 1, 0.31 mg/kg/day, qd 1→9, ip
[7] = B16 Exp. 1, 0.63 mg/kg/day, qd 1→9, ip
[8] = B16 Exp. 1, 1.3 mg/kg/day, qd 1→9, ip
[9] = B16 Exp. 1, 2.5 mg/kg/day, qd 1→9, ip
[10] = P388, 0.63 mg/kg/day, qd 1→9, ip
[11] = B16 Exp. 1, 0.1 mg/kg/day, qd 1→9, ip
[12] = B16 Exp. 1, 0.3 mg/kg/day, qd 1→9, ip
[13] = B16 Exp. 1, 1.0 mg/kg/day, qd 1→9, ip

O=c1c(O)cccc(O)c1O [BU-3129T, 3,7-dihydroxytropolone]
Potency in the in vitro cytotoxicity test [1]: most potent | Antitumor activity against leukemia P388 (in words) (Leukemia P388; mice bearing murine tumors, ip): no activity | Average weight change on day 5 (Melanoma B16 [2]; [5]): +0.4 g | MST (Melanoma B16 [2]; [5]): 16.0 days | Average weight change on day 5 (Melanoma B16 [2]; [6]): +1.2 g | MST (Melanoma B16 [2]; [6]): 18.0 days | Average weight change on day 5 (Melanoma B16 [2]; [7]): +1.0 g | MST (Melanoma B16 [2]; [7]): 23.0 days | Average weight change on day 5 (Melanoma B16 [2]; [8]): +0.4 g | MST (Melanoma B16 [2]; [8]): 29.0 days | Average weight change on day 5 (Melanoma B16 [2]; [9]): -0.8 g | MST (Melanoma B16 [2]; [9]): 12.0 days | tox (Melanoma B16 [2]; B16 Exp. 1, 5.0 mg/kg/day, qd 1→9, ip): tox | T/C (Melanoma B16 [2]; [5]): 100% | T/C (Melanoma B16 [2]; [6]): 113% | T/C (Melanoma B16 [2]; [7]): 144% | T/C (Melanoma B16 [2]; [8]): 181% | T/C (Melanoma B16 [2]; [9]): 75% | Antitumor activity against melanoma B16 (in words) (Melanoma B16 [2]; mice bearing murine tumors, ip): significant antitumor activity | Inhibitory action against mammalian malignant tumors (in words) (Melanoma B16 [2]; overall conclusion from the data): marked inhibitory action | Antimicrobial activity [3]: possesses antimicrobial activity

CO[C@@]12[C@H](COC(N)=O)C3=C(C(=O)C(C)=C(N)C3=O)N1C[C@@H]1N[C@@H]12 [Mitomycin C, reference compound]
MST (Leukemia P388; [10]): 21.0 days | T/C (Leukemia P388; P388, 0.08 mg/kg/day, qd 1→9, ip): 114% | T/C (Leukemia P388; P388, 0.16 mg/kg/day, qd 1→9, ip): 143% | T/C (Leukemia P388; P388, 0.31 mg/kg/day, qd 1→9, ip): 152% | T/C (Leukemia P388; [10]): 200% | T/C (Leukemia P388; P388, 1.3 mg/kg/day, qd 1→9, ip): 200% | Average weight change on day 5 (Melanoma B16 [2]; [11]): +1.0 g | Average weight change on day 5 (Melanoma B16 [2]; [12]): +0.4 g | MST (Melanoma B16 [2]; [12]): 22.0 days | Average weight change on day 5 (Melanoma B16 [2]; [13]): +0.6 g | MST (Melanoma B16 [2]; [13]): 27.0 days | T/C (Melanoma B16 [2]; [11]): 100% | T/C (Melanoma B16 [2]; [12]): 128% | T/C (Melanoma B16 [2]; [13]): 169%

O=c1cccccc1O [Tropolone]
Average weight change on day 5 (Melanoma B16 [4]; 1.0 mg/kg/day): +2.3 g | Average weight change on day 5 (Melanoma B16 [4]; 3.0 mg/kg/day): +2.5 g | Average weight change on day 5 (Melanoma B16 [4]; 10 mg/kg/day): +3.3 g | Average weight change on day 5 (Melanoma B16 [4]; 30 mg/kg/day): +2.0 g | Antitumor activity against melanoma B16 (in words) (Melanoma B16 [4]; at the doses tested): did not show any activity
